Legend:
[1] = tested on: Phakopsora pachyrhizi (F129L); experiment: Protective control of soybean rust on soybeans (PHAKPA P2); format: in vivo; details: for % PHAKPA (F129L) Disease level P2 at 4 ppm: protective P2, 4 ppm; for % PHAKPA (F129L) Disease level P2 at 16 ppm: protective P2, 16 ppm
[2] = tested on: Phakopsora pachyrhizi (F129L); experiment: Protective control of soybean rust on soybeans (PHAKPA P6); format: in vivo; details: for % PHAKPA (F129L) Disease level P6 at 4 ppm: protective P6, 4 ppm; for % PHAKPA (F129L) Disease level P6 at 16 ppm: protective P6, 16 ppm

Compound	% PHAKPA (F129L) Disease level P2 at 4 ppm ([1]; soybean rust F129L isolate)	% PHAKPA (F129L) Disease level P2 at 16 ppm ([1]; soybean rust F129L isolate)	% PHAKPA (F129L) Disease level P6 at 4 ppm ([2]; soybean rust F129L isolate)	% PHAKPA (F129L) Disease level P6 at 16 ppm ([2]; soybean rust F129L isolate)	% PHAKPA (F129L) Disease level P2 at 4 ppm ([1]; F129L isolate)	% PHAKPA (F129L) Disease level P2 at 16 ppm ([1]; F129L isolate)	% PHAKPA (F129L) Disease level P6 at 4 ppm ([2]; F129L isolate)	% PHAKPA (F129L) Disease level P6 at 16 ppm ([2]; F129L isolate)
CNC(=O)/C(=N/OC)c1cccc(C)c1CO/N=C(\C)c1ccc(F)cc1OC(F)(F)F [compound 378]	18%	1%	17%	1%	–	–	–	–
CNC(=O)/C(=N/OC)c1cccc(C)c1CO/N=C(\CC(F)(F)F)c1ccccc1 [compound 380]	–	–	–	–	53%	5%	60%	12%
CCC/C(=N\OCc1c(C)cccc1/C(=N\OC)C(=O)OC)c1ccccc1 [compound 387]	–	–	–	–	60%	30%	80%	47%
CCC/C(=N\OCc1c(C)cccc1/C(=N\OC)C(=O)NC)c1ccccc1 [compound 388]	–	–	–	–	1%	0%	3%	0%
CNC(=O)/C(=N/OC)c1cccc(C)c1CO/N=C(/c1ccccc1)C(C)C [compound 389]	–	–	–	–	28%	4%	43%	3%
CO/C=C(/C(=O)OC)c1cccc(C)c1CO/N=C(\C)c1c(F)cccc1C(F)(F)F [compound 390]	–	–	–	–	22%	0%	18%	2%
CNC(=O)/C(=N/OC)c1cccc(C)c1CO/N=C(\CC(F)(F)F)c1ccccc1C [compound 393]	–	–	–	–	93%	55%	93%	42%
CNC(=O)/C(=N/OC)c1cccc(C)c1CO/N=C(\C)c1ccc(F)cc1CC(F)(F)F [compound 394]	–	–	–	–	9%	3%	12%	2%
CO/N=C(/C(=O)OC)c1cccc(Br)c1CO/N=C(\C)c1ccccc1 [compound 395]	–	–	–	–	43%	4%	67%	18%
CNC(=O)/C(=N/OC)c1cccc(Br)c1CO/N=C(\C)c1ccccc1 [compound 396]	–	–	–	–	3%	0%	4%	0%
C=C(C)c1cccc(/C(=N\OC)C(=O)NC)c1CO/N=C(\C)c1ccccc1 [compound 399]	–	–	–	–	67%	8%	90%	15%
C=Cc1cccc(/C(=N\OC)C(=O)NC)c1CO/N=C(\C)c1ccccc1 [compound 400]	–	–	–	–	2%	0%	8%	0%
C#Cc1cccc(/C(C)=N/OCc2c(C)cccc2/C(=N\OC)C(=O)NC)c1F [compound 401]	–	–	–	–	17%	5%	32%	4%
CO/C=C(/C(=O)OC)c1cccc(C)c1CO/N=C(\C)c1cc(F)c(F)cc1CC(F)(F)F [compound 405]	–	–	–	–	97%	27%	70%	27%
CNC(=O)/C(=N/OC)c1cccc(C)c1CO/N=C(\C)c1cc(F)c(F)cc1CC(F)(F)F [compound 406]	–	–	–	–	97%	30%	67%	23%
CNC(=O)/C(=N/OC)c1cccc(C)c1CO/N=C(\C)c1ccc(Cc2ccccc2)cc1C(F)(F)F [compound 407]	–	–	–	–	12%	6%	17%	4%
CO/N=C(/C(=O)OC)c1cccc(C)c1CO/N=C(\C)c1ccc(Cc2ccccc2)cc1C(F)(F)F [compound 408]	–	–	–	–	30%	12%	33%	13%
CO/N=C(/C(=O)OC)c1cccc(C)c1CO/N=C(\C)c1cc(F)c(F)cc1C(F)(F)F [compound 409]	–	–	–	–	77%	40%	83%	73%

Compound	% PHAKPA (F129L) Disease level P2 at 4 ppm ([1]; soybean rust F129L isolate)	% PHAKPA (F129L) Disease level P2 at 16 ppm ([1]; soybean rust F129L isolate)	% PHAKPA (F129L) Disease level P6 at 4 ppm ([2]; soybean rust F129L isolate)	% PHAKPA (F129L) Disease level P6 at 16 ppm ([2]; soybean rust F129L isolate)	% PHAKPA (F129L) Disease level P2 at 4 ppm ([1]; F129L isolate)	% PHAKPA (F129L) Disease level P2 at 16 ppm ([1]; F129L isolate)	% PHAKPA (F129L) Disease level P6 at 4 ppm ([2]; F129L isolate)	% PHAKPA (F129L) Disease level P6 at 16 ppm ([2]; F129L isolate)
CNC(=O)/C(=N/OC)c1cccc(C)c1CO/N=C(\C)c1cc(F)c(F)cc1C(F)(F)F [compound 410]	–	–	–	–	9%	0%	35%	1%
CNC(=O)/C(=N/OC)c1cccc(C)c1CO/N=C(\C)c1ccc(Cl)c(F)c1CC(F)(F)F [compound 412]	–	–	–	–	47%	6%	40%	6%
CNC(=O)/C(=N/OC)c1cccc(C)c1CO/N=C(\C)c1ccc(-c2ccccc2)cc1C(F)(F)F [compound 413]	–	–	–	–	40%	15%	33%	15%
CO/N=C(/C(=O)OC)c1cccc(C)c1CO/N=C(\C)c1ccc(-c2ccccc2)cc1C(F)(F)F [compound 414]	–	–	–	–	53%	9%	53%	15%
CNC(=O)/C(=N/OC)c1cccc(C)c1CO/N=C(\C)c1ccc(/C(C)=N\OC)cc1OC(F)(F)F [compound 415]	–	–	–	–	47%	5%	67%	11%
CO/N=C(/C(=O)OC)c1cccc(C)c1CO/N=C(\C)c1ccc(Cc2ccccc2)cc1OC(F)(F)F [compound 416]	–	–	–	–	57%	27%	67%	25%
CO/N=C(/C)c1ccc(/C(C)=N/OCc2c(C)cccc2/C(=N\OC)C(=O)OC)c(C(F)(F)F)c1 [compound 417]	–	–	–	–	35%	18%	63%	22%
CO/N=C(/C)c1ccc(/C(C)=N/OCc2c(C)cccc2/C(=N\OC)C(=O)OC)c(OC(F)(F)F)c1 [compound 418]	–	–	–	–	70%	33%	73%	57%
CNC(=O)/C(=N/OC)c1cccc(C)c1CO/N=C(\C)c1ccc(Cc2ccccc2)cc1OC(F)(F)F [compound 419]	–	–	–	–	40%	18%	60%	12%
CNC(=O)/C(=N/OC)c1cccc(C)c1CO/N=C(\C)c1ccc(/C(C)=N\OC)cc1C(F)(F)F [compound 420]	–	–	–	–	8%	0%	12%	1%
CO/N=C(/C(=O)OC)c1cccc(C)c1CO/N=C(\C)c1cccc(Cl)c1C(F)(F)F [compound 421]	–	–	–	–	100%	33%	87%	57%
CNC(=O)/C(=N/OC)c1cccc(C)c1CO/N=C(\C)c1cccc(Cl)c1C(F)(F)F [compound 422]	–	–	–	–	30%	0%	32%	2%
CO/N=C(/C(=O)OC)c1cccc(C)c1CO/N=C(\C)c1ccc(C#N)cc1C(F)(F)F [compound 423]	–	–	–	–	100%	57%	93%	53%
CNC(=O)/C(=N/OC)c1cccc(C)c1CO/N=C(\C)c1ccc(C#N)cc1C(F)(F)F [compound 424]	–	–	–	–	100%	27%	97%	50%
CO/N=C(/C(=O)OC)c1cccc(C)c1CO/N=C(\C)c1ccc(-c2ccc(F)cc2)cc1C(F)(F)F [compound 425]	–	–	–	–	27%	28%	53%	40%
CNC(=O)/C(=N/OC)c1cccc(C)c1CO/N=C(\C)c1ccc(-c2ccc(F)cc2)cc1C(F)(F)F [compound 426]	–	–	–	–	7%	1%	27%	10%
CO/N=C(/C(=O)OC)c1cccc(C)c1CO/N=C(\C)c1c(Cl)cc(Cl)cc1OC(F)(F)F [compound 427]	–	–	–	–	100%	90%	60%	47%

Source: patent US20230172206A1 (BASF SE, priority 2020, published 2023)
